Columns and labels:
[1] = tested on: HF, PPC-1, and CaKi-1 cells; assay: MTT cell viability screen at 100 μM (cell line not given); assay type: cell-based, human; details: 72 h, cell line not stated
Description: The effect of synthesized compounds on cell viability was studied using 3-(4,5-dimethylthiazol-2-yl)-2,5-diphenyltetrazolium bromide (MTT; Sigma-Aldrich Co., St Louis, MO, USA) assay, as described elsewhere. Briefly, HF, PPC-1, and CaKi-1 cells were seeded in 96-well plates (Corning) in triplicates at a volume of 100 μL at a concentration of 4 × 10^3 cells/well. After 24 h of incubation, the cells were treated with 100 μM of tested compounds. After 72 h, the MTT reagent (at 0.5 mg/mL concentration) has been added to the wells, and cells were incubated for 4 h. Then the medium was aspirated, and the formed purple crystals were dissolved in 100 μL DMSO (Sigma-Aldrich Co.). The absorbance was measured at 570 and 630 nm using a multi-detection microplate reader. The compound effect on cell viability was calculated using a formula (1): Relativecellviability%=A−A0/ANC−A0 (1) Where: […]

Cc1cc(NS(=O)(=O)c2ccc(NCCC(=O)O)cc2)no1 [Compound 2, 3-((4-(N-(5-methylisoxazol-3-yl)sulfamoyl)phenyl)amino)propanoic acid]
melting point: 188 to 189 °C

Cc1cc(NS(=O)(=O)c2ccc(NCCC(=O)NNC(=S)Nc3ccccc3)cc2)no1 [Compound 11, 2-(3-((4-(N-(5-methylisoxazol-3-yl)sulfamoyl)phenyl)amino)propanoyl)-N-phenylhydrazine-1-carbothioamide]
melting point: 183 to 184 °C

Cc1cc(NS(=O)(=O)c2ccc(NCCC(=O)NN=Cc3ccc([N+](=O)[O-])cc3)cc2)no1 [Compound 15j, 4-((3-(2-(4-Nitrobenzylidene)hydrazineyl)-3-oxopropyl)amino)-N-(5-methylisoxazol-3-yl)benzene-sulfonamide]
melting point: 214 to 215 °C

Cc1cc(NS(=O)(=O)c2ccc(NCCC(=O)NN=Cc3ccc(F)cc3)cc2)no1 [Compound 15d, 4-((3-(2-(4-Fluorobenzylidene)hydrazineyl)-3-oxopropyl)amino)-N-(5-methylisoxazol-3-yl)benzene-sulfonamide]
melting point: 213 to 214 °C

Cc1cc(NS(=O)(=O)c2ccc(NCCC(=O)NN=Cc3ccccc3O)cc2)no1 [Compound 15b, 4-((3-(2-(2-Hydroxybenzylidene)hydrazineyl)-3-oxopropyl)amino)-N-(5-methylisoxazol-3-yl)benzene-sulfonamide]
melting point: 193 to 194 °C

Cc1cc(NS(=O)(=O)c2ccc(NCCC(=O)NN=C3C(=O)Nc4ccccc43)cc2)no1 [Compound 14, N-(5-methylisoxazol-3-yl)-4-((3-oxo-3-(2-(2-oxoindolin-3-ylidene)hydrazineyl)propyl)amino)-benzenesulfonamide]
melting point: 209 to 210 °C

Cc1cc(NS(=O)(=O)c2ccc(NCCC(=O)NNC(=O)Nc3ccccc3)cc2)no1 [Compound 10, 2-(3-((4-(N-(5-methylisoxazol-3-yl)sulfamoyl)phenyl)amino)propanoyl)-N-phenylhydrazine-1-carboxamide]
melting point: 204 to 205 °C

Cc1cc(NS(=O)(=O)c2ccc(NCCC(=O)NN=Cc3cccc([N+](=O)[O-])c3)cc2)no1 [Compound 15h, 4-((3-(2-(3-Nitrobenzylidene)hydrazineyl)-3-oxopropyl)amino)-N-(5-methylisoxazol-3-yl)benzene-sulfonamide]
melting point: 208 to 209 °C

Cc1cc(NS(=O)(=O)c2ccc(NCCc3n[nH]c(=S)n3-c3ccccc3)cc2)no1 [Compound 13, N-(5-methylisoxazol-3-yl)-4-((2-(4-phenyl-5-thioxo-4,5-dihydro-1H-1,2,4-triazol-3-yl)ethyl)amino)-benzenesulfonamide]
melting point: 222 to 223 °C

Cc1cc(NS(=O)(=O)c2ccc(NCCc3n[nH]c(=O)n3-c3ccccc3)cc2)no1 [Compound 12, N-(5-methylisoxazol-3-yl)-4-((2-(5-oxo-4-phenyl-4,5-dihydro-1H-1,2,4-triazol-3-yl)ethyl)amino)-benzenesulfonamide]
melting point: 188 to 189 °C

Cc1cc(NS(=O)(=O)c2ccc(NCCC(=O)NN=Cc3cc([N+](=O)[O-])ccc3Cl)cc2)no1 [Compound 15i, 4-((3-(2-(2-Chloro-5-nitrobenzylidene)hydrazineyl)-3-oxopropyl)amino)-N-(5-methylisoxazol-3-yl)benzenesulfonamide]
melting point: 210 to 211 °C

Cc1cc(NS(=O)(=O)c2ccc(N3CCC(=O)NC3=S)cc2)no1 [Compound 6, N-(5-methylisoxazol-3-yl)-4-(4-oxo-2-thioxotetrahydropyrimidin-1(2H)-yl)benzenesulfonamide]
melting point: 240 to 241 °C

Cc1cc(NS(=O)(=O)c2ccc(NCCC(=O)NN=Cc3cccs3)cc2)no1 [Compound 16c, N-(5-methylisoxazol-3-yl)-4-((3-oxo-3-(2-(thiophen-2-ylmethylene)hydrazineyl)propyl)amino)-benzenesulfonamide]
melting point: 215 to 216 °C

Cc1cc(NS(=O)(=O)c2ccc(NCCC(=O)NN=Cc3ccc([N+](=O)[O-])s3)cc2)no1 [Compound 16d, N-(5-methylisoxazol-3-yl)-4-((3-(2-((5-nitrothiophen-2-yl)methylene)hydrazineyl)-3-oxopropyl)amino)-benzenesulfonamide]
melting point: 195 to 196 °C | reduced cell viability up to about [1]: about 40%

Cc1cc(NS(=O)(=O)c2ccc(NCCC(=O)NN=Cc3ccccc3)cc2)no1 [Compound 15a, 4-((3-(2-Benzylidenehydrazineyl)-3-oxopropyl)amino)-N-(5-methylisoxazol-3-yl)benzenesulfonamide]
melting point: 199 to 200 °C

Cc1cc(NS(=O)(=O)c2ccc(NCCC(=O)NN=Cc3ccco3)cc2)no1 [Compound 16a, 4-((3-(2-(Furan-2-ylmethylene)hydrazineyl)-3-oxopropyl)amino)-N-(5-methylisoxazol-3-yl)benzene-sulfonamide]
melting point: 185 to 186 °C

Cc1cc(NS(=O)(=O)c2ccc(NC=CC(=O)Nc3ccc(S(N)(=O)=O)cc3)cc2)no1 [Compound 7, 3-((4-(N-(5-methylisoxazol-3-yl)sulfamoyl)phenyl)amino)-N-(4-sulfamoylphenyl)propenamide]
melting point: 213 to 214 °C

Cc1cc(NS(=O)(=O)c2ccc(NCCC(=O)NN=Cc3ccc(O)cc3)cc2)no1 [Compound 15c, 4-((3-(2-(4-Hydroxybenzylidene)hydrazineyl)-3-oxopropyl)amino)-N-(5-methylisoxazol-3-yl)benzene-sulfonamide]
melting point: 218 to 219 °C

Cc1cc(NS(=O)(=O)c2ccc(NCCC(=O)NN=Cc3ccc(Cl)cc3)cc2)no1 [Compound 15f, 4-((3-(2-(4-Chlorobenzylidene)hydrazineyl)-3-oxopropyl)amino)-N-(5-methylisoxazol-3-yl)benzene-sulfonamide]
melting point: 210 to 211 °C

COC(=O)CCNc1ccc(S(=O)(=O)Nc2cc(C)on2)cc1 [Compound 3, Methyl 3-((4-(N-(5-methylisoxazol-3-yl)sulfamoyl)phenyl)amino)propanoate]
melting point: 148 to 149 °C

Cc1cc(NS(=O)(=O)c2ccc(NCCC(=O)NN=Cc3ccccc3Cl)cc2)no1 [Compound 15e, 4-((3-(2-(2-Chlorobenzylidene)hydrazineyl)-3-oxopropyl)amino)-N-(5-methylisoxazol-3-yl)benzene-sulfonamide]
melting point: 202 to 203 °C | reduced cell viability up to about [1]: about 40%

COc1ccc(C=NNC(=O)CCNc2ccc(S(=O)(=O)Nc3cc(C)on3)cc2)cc1 [Compound 15g, 4-((3-(2-(4-Methoxybenzylidene)hydrazineyl)-3-oxopropyl)amino)-N-(5-methylisoxazol-3-yl)benzene-sulfonamide]
melting point: 206 to 207 °C

Cc1cc(NS(=O)(=O)c2ccc(N(CCC(=O)O)C(N)=S)cc2)no1 [Compound 6a, 3-(1-(4-(N-(5-methylisoxazol-3-yl)sulfamoyl)phenyl)thioureido)propanoic acid]
melting point: 182 to 183 °C

Cc1cc(C)n(C(=O)CCNc2ccc(S(=O)(=O)Nc3cc(C)on3)cc2)n1 [Compound 9, 4-((3-(3,5-Dimethyl-1H-pyrazol-1-yl)-3-oxopropyl)amino)-N-(5-methylisoxazol-3-yl)benzenesulfonamide]
melting point: 144 to 145 °C

Cc1cc(NS(=O)(=O)c2ccc(NC=CC(=O)Nn3c(C)ccc3C)cc2)no1 [Compound 8, N-(2,5-dimethyl-1H-pyrrol-1-yl)-3-((4-(N-(5-methylisoxazol-3-yl)sulfamoyl)phenyl)amino)propenamide]
melting point: 118 to 119 °C
